In patent US20260000692A1, “Substituted N-(Pyridin-2-yl)Acetamide Derivatives as CDK12/13 Inhibitors” (Aurigene Oncology Limited, priority 2022, published 2026):
Read-outs that look alike come from different tables or passages of the source.

Biological target: CDK12 (Homo sapiens, UniProt Q9NYV4)
Assay: Biochemical assay for CDK12 (LANCE TR-FRET, IC50 determination)
Details: for IC50: CDK12, IC50 class; for inhibition at 10 µM: read-out: CDK12 % Inhibition @ 10 μM
Method in brief: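 30 nM CDK12 phosphorylated 100 nM ULight-4E-BP1 (Thr37/Thr46) peptide at 100 µM ATP, as printed, in HEPES pH 7.5 buffer with MgCl2 and DTT. Compound and enzyme were preincubated 60 min, then reacted 60 min at room temperature before stopping with EDTA and Eu anti-phospho antibody. TR-FRET 665/615 ratio gave sigmoidal IC50 fits.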

Sequence of CDK12 (Q9NYV4 whole entry): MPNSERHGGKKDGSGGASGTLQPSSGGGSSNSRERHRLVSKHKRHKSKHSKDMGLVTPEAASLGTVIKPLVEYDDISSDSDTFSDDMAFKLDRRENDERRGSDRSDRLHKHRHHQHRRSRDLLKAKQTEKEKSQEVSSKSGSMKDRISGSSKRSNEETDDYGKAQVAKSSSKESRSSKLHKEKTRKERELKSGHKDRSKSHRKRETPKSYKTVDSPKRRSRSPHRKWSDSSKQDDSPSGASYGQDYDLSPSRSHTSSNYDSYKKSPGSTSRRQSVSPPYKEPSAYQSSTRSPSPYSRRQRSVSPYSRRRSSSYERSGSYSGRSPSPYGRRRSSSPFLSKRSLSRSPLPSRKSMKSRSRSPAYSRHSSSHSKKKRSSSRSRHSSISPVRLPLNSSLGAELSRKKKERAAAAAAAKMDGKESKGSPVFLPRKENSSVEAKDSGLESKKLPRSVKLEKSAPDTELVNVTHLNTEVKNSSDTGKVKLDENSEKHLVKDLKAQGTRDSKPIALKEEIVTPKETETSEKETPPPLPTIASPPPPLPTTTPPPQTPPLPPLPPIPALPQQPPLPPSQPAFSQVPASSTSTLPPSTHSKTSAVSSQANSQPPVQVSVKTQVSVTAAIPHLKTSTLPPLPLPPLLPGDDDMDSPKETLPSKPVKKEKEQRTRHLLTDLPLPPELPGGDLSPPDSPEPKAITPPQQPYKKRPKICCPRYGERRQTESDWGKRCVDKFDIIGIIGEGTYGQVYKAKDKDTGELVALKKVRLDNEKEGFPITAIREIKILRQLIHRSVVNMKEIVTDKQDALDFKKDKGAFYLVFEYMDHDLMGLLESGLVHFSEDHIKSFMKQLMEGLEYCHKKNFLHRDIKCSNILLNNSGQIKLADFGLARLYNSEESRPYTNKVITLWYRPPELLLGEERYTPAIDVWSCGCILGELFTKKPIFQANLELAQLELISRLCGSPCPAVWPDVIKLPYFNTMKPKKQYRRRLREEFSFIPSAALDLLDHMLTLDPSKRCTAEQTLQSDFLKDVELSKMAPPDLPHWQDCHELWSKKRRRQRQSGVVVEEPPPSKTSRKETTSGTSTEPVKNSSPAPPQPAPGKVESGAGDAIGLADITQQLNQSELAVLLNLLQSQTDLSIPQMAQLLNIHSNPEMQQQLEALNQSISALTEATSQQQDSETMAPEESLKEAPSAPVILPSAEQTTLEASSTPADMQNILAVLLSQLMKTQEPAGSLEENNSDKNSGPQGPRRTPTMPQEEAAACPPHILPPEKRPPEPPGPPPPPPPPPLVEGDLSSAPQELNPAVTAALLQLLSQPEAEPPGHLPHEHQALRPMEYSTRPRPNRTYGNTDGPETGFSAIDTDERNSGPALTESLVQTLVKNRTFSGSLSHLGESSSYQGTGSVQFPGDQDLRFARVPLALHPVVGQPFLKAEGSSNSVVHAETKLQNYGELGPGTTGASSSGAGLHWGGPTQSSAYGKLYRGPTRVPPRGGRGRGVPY
Sequence of CDK12 (O75909 whole entry partner): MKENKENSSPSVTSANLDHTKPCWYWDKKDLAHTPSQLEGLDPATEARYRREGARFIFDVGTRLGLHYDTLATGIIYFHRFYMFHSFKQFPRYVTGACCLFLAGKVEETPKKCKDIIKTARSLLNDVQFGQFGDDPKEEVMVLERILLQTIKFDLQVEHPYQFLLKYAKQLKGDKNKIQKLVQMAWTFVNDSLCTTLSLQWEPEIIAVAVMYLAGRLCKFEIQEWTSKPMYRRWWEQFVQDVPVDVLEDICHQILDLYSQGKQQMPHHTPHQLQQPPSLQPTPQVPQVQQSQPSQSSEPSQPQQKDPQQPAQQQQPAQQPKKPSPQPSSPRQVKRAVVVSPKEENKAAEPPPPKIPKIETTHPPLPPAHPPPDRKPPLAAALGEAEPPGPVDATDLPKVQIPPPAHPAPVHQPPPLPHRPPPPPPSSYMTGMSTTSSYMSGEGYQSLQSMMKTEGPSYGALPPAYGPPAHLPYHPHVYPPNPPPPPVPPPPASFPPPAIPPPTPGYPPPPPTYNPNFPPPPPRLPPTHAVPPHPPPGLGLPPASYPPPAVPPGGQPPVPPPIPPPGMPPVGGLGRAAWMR

SMILES	IC50 (read-out: IC50 μM (in range)) [µM]	inhibition at 10 µM (compound at 10 μM) [%]	IC50 (IC50 μM (in range)) [µM]	inhibition at 10 µM [%]
COc1cc(NC(=O)Cc2ccc(C3=CCN(C#N)CC3C)nc2)ncc1Cl (stereo not drawn) [Compound 70, N-(5-chloro-4-methoxypyridin-2-yl)-2-(1′-cyano-3′-methyl-1′,2′,3′,6′-tetrahydro-[2,4′-bipyridin]-5-yl)acetamide]	< 0.01	94	–	–
COc1cc(NC(=O)Cc2ccc(C3=CC4CCC(C3)N4C#N)nc2)ncc1Cl (stereo not drawn) [Compound 73, N-(5-chloro-4-methoxypyridin-2-yl)-2-(6-(8-cyano-8-azabicyclo[3.2.1]oct-2-en-3-yl)pyridin-3-yl)acetamide]	< 0.01	87	–	–
COc1cc(NC(=O)Cc2ccc(C3CC4CCC(C3)N4C#N)nc2)ncc1Cl (stereo not drawn) [Compound 74, N-(5-chloro-4-methoxypyridin-2-yl)-2-(6-(8-cyano-8-azabicyclo[3.2.1]octan-3-yl)pyridin-3-yl)acetamide]	< 0.01	100	–	–
COc1cc(NC(=O)Cc2ccc(C3=CC4CN(C#N)CC4C3)nc2)ncc1Cl (stereo not drawn) [Compound 75, N-(5-chloro-4-methoxypyridin-2-yl)-2-(6-(2-cyano-1,2,3,3a,4,6a-hexahydrocyclopenta[c]pyrrol-5-yl)pyridin-3-yl)acetamide]	< 0.01	96	–	–
COc1cc(NC(=O)Cc2ccc(C3CC4CN(C#N)CC4C3)nc2)ncc1Cl (stereo not drawn) [Compound 76, N-(5-chloro-4-methoxypyridin-2-yl)-2-(6-(2-cyanooctahydrocyclopenta[c]pyrrol-5-yl)pyridin-3-yl)acetamide]	< 0.01	90	–	–
CN(C)C(=O)Oc1cc(NC(=O)Cc2ccc(C3=CCCN(C#N)C3)nc2)ncc1Cl [Compound 77, 5-chloro-2-(2-(1′-cyano-1′,2′,5′,6′-tetrahydro-[2,3′-bipyridin]-5-yl)acetamido)pyridin-4-yl dimethylcarbamate]	–	–	< 0.01	79
COc1cc(NC(=O)Cc2ccc(C3CCCN(C#N)C3)nc2)ncc1Cl (stereo not drawn) [Compound 78, N-(5-chloro-4-methoxypyridin-2-yl)-2-(6-(1-cyanopiperidin-3-yl)pyridin-3-yl)acetamide]	0.01 to 0.1	87	–	–
COc1cc(NC(=O)Cc2ccc(C3=CC4CCC3CN4C#N)nc2)ncc1Cl (stereo not drawn) [Compound 81, N-(5-chloro-4-methoxypyridin-2-yl)-2-(6-(2-cyano-2-azabicyclo[2.2.2]oct-5-en-5-yl)pyridin-3-yl)acetamide]	< 0.01	87	–	–
CNC(=O)C(C)Oc1cc(NC(=O)Cc2ccc(C3CCN(C#N)CC3)nc2)ncc1Cl (stereo not drawn) [Compound 82, 2-((5-chloro-2-(2-(6-(1-cyanopiperidin-4-yl)pyridin-3-yl)acetamido)pyridin-4-yl)oxy)-N-methylpropanamide]	0.01 to 0.1	87	–	–
CNC(=O)C(C)Oc1cc(NC(=O)Cc2ccc(C3CCCN(C#N)C3)nc2)ncc1Cl (stereo not drawn) [Compound 85, 2-((5-chloro-2-(2-(6-(1-cyanopiperidin-3-yl)pyridin-3-yl)acetamido)pyridin-4-yl)oxy)-N-methylpropanamide]	0.01 to 0.1	92	–	–
N#CN1CCCC(c2ccc(CC(=O)Nc3cc(O[C@@H]4CCOC4)c(Cl)cn3)cn2)C1 (stereo partly drawn) [Compound 92, N-(5-chloro-4-(((R)-tetrahydrofuran-3-yl)oxy)pyridin-2-yl)-2-(6-(1-cyanopiperidin-3-yl)pyridin-3-yl)acetamide]	0.01 to 0.1	90	–	–
N#CN1CCCC(c2ccc(CC(=O)Nc3cc(O[C@H]4CCOC4)c(Cl)cn3)cn2)C1 (stereo partly drawn) [Compound 95, N-(5-chloro-4-(((S)-tetrahydrofuran-3-yl)oxy)pyridin-2-yl)-2-(6-(1-cyanopiperidin-3-yl)pyridin-3-yl)acetamide]	0.01 to 0.1	90	–	–
N#CN1CCC(c2ccc(CC(=O)Nc3cc(O[C@@H]4CCOC4)c(Cl)cn3)cn2)CC1 [Compound 98, (R)-N-(5-chloro-4-((tetrahydrofuran-3-yl)oxy)pyridin-2-yl)-2-(6-(1-cyanopiperidin-4-yl)pyridin-3-yl)acetamide]	0.01 to 0.1	87	–	–
N#CN1CCC(c2ccc(CC(=O)Nc3cc(O[C@H]4CCOC4)c(Cl)cn3)cn2)CC1 [Compound 99, (S)-N-(5-chloro-4-((tetrahydrofuran-3-yl)oxy)pyridin-2-yl)-2-(6-(1-cyanopiperidin-4-yl)pyridin-3-yl)acetamide]	0.01 to 0.1	95	–	–
CN(C)C(=O)Oc1cc(NC(=O)Cc2ccc(C3=CCN(C#N)CC3)nc2)ncc1Cl [Compound 100, 5-chloro-2-(2-(1′-cyano-1′,2′,3′,6′-tetrahydro-[2,4′-bipyridin]-5-yl)acetamido)pyridin-4-yl dimethylcarbamate]	–	–	0.01 to 0.1	77
CN(C)C(=O)Oc1cc(NC(=O)Cc2ccc(C3CCN(C#N)CC3)nc2)ncc1Cl [Compound 101, 5-chloro-2-(2-(6-(1-cyanopiperidin-4-yl)pyridin-3-yl)acetamido)pyridin-4-yl dimethylcarbamate]	–	–	> 0.1	86
N#CN1CCC=C(c2ccc(CC(=O)Nc3ccccn3)cn2)C1 [Compound 102, 2-(1′-cyano-1′,2′,5′,6′-tetrahydro-[2,3′-bipyridin]-5-yl)-N-(pyridin-2-yl)acetamide]	> 0.1	87	–	–
N#CN1CCC=C(c2ccc(CC(=O)Nc3ccc(F)cn3)cn2)C1 [Compound 103, 2-(1′-cyano-1′,2′,5′,6′-tetrahydro-[2,3′-bipyridin]-5-yl)-N-(5-fluoropyridin-2-yl)acetamide]	0.01 to 0.1	98	–	–
Cc1ccc(NC(=O)Cc2ccc(C3=CCCN(C#N)C3)nc2)nc1 [Compound 104, 2-(1′-cyano-1′,2′,5′,6′-tetrahydro-[2,3′-bipyridin]-5-yl)-N-(5-methylpyridin-2-yl)acetamide]	0.01 to 0.1	79	–	–
N#CN1CCC=C(c2ccc(CC(=O)Nc3cc(Cl)c(Cl)cn3)cn2)C1 [Compound 105, 2-(1′-cyano-1′,2′,5′,6′-tetrahydro-[2,3′-bipyridin]-5-yl)-N-(4,5-dichloropyridin-2-yl)acetamide]	< 0.01	100	–	–
N#CN1CCC=C(c2ccc(CC(=O)Nc3ccc(C4CC4)cn3)cn2)C1 [Compound 106, 2-(1′-cyano-1′,2′,5′,6′-tetrahydro-[2,3′-bipyridin]-5-yl)-N-(5-cyclopropylpyridin-2-yl)acetamide]	< 0.01	90	–	–
CSc1ccc(NC(=O)Cc2ccc(C3=CCCN(C#N)C3)nc2)nc1 [Compound 107, 2-(1′-cyano-1′,2′,5′,6′-tetrahydro-[2,3′-bipyridin]-5-yl)-N-(5-(methylthio)pyridin-2-yl)acetamide]	0.01 to 0.1	95	–	–
N#CN1CCC=C(c2ccc(CC(=O)Nc3cnc(Cl)cn3)cn2)C1 [Compound 108, N-(5-chloropyrazin-2-yl)-2-(1′-cyano-1′,2′,5′,6′-tetrahydro-[2,3′-bipyridin]-5-yl)acetamide]	0.01 to 0.1	85	–	–
CN(C)c1cc(NC(=O)Cc2ccc(C3=CCCN(C#N)C3)nc2)ncc1Cl [Compound 109, N-(5-chloro-4-(dimethylamino)pyridin-2-yl)-2-(1′-cyano-1′,2′,5′,6′-tetrahydro-[2,3′-bipyridin]-5-yl)acetamide]	0.01 to 0.1	89	–	–
